Assay results: PubChem BioAssay (NCI)
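A five-concentration, 48-hour dose response in 96-well plates underlies each endpoint, interpolated linearly between surrounding concentrations. GI50 is the concentration that inhibits growth by half. The concentration for full growth arrest is given as TGI.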

Columns and labels:
Test in all cases: NCI tumour cell line growth inhibition, 48 h
[1] = tested on: DU-145 prostate
[2] = tested on: MDA-MB-435
[3] = tested on: PC-3 prostate
[4] = tested on: T-47D breast
[5] = tested on: DLD-1 colon
[6] = tested on: LXFL 529 NSCLC
[7] = tested on: M19-MEL melanoma
[8] = tested on: SNB-78 CNS
[9] = tested on: DMS 114 small cell lung

SMILES	GI50 [1] [µM]	TGI [1] [µM]	GI50 [2] [µM]	TGI [2] [µM]	GI50 [3] [µM]	TGI [3] [µM]	GI50 [4] [µM]	TGI [4] [µM]	TGI [5] [µM]	TGI [6] [µM]	TGI [7] [µM]	TGI [8] [µM]	TGI [9] [µM]
CN1C(NC(=O)c2ccc(Cl)nc2)=NS(=O)(=O)c2cc(Cl)ccc21	> 100	> 100	> 100	> 100	> 100	> 100	> 100	> 100					
CCCNC(=S)N/N=C(\C)c1ccccn1	1.1	> 42.9	0.53	> 100	0.0471	> 100	0.0274	> 100					
C#CC[C@]12CC(=O)CC[C@H]1CC(=O)C2									> 100	> 100	> 100	> 100	
COc1ccc(C2CC(=O)c3c(O)c(OC)c(OC)c(OC)c3O2)c(O)c1 (centres undefined)	0.25	15.9			0.0707	20.8	0.113	24.6					
COC(=O)C(=O)C(C(=O)C=C(C)C)C(=O)C(=O)Nc1ccc(Cl)cc1C (centres undefined)									> 100	> 100	> 100		> 100
CCCCNC(=O)NS(=O)(=O)c1ccc(N2N=C(c3ccc(C)cc3C)CC2c2ccc(N(C)C)cc2)cc1 (centres undefined)	5.75	81.1	2.55	7.59	3.34	> 100	5.16	> 100					
O=C(O)C(Sc1ccc(Cl)cc1)Sc1ccc(Cl)cc1		> 100		> 100		> 100		> 100					
CC(C)CC(N)C(=O)O (centres undefined)		> 100		> 100		> 100		> 100					
O=[N+]([O-])c1ccc2nnnn2c1		> 100		32.8		> 100		> 100					
CC(C)(C)C1=CC(=CC=C2C=CN(CCCCCCCCCCCO)C=C2)C=C(C(C)(C)C)C1=O		20.7		3.4		3.68		2.7					
O=C(C[C@@H](C(=O)NCc1cccc(C(F)(F)F)c1)N1C(=O)[C@@H](N2C(=O)OC[C@@H]2c2ccccc2)[C@H]1/C=C/c1ccccc1)NC1CCN(Cc2ccccc2)CC1	7.72	> 100	2.45	7.66	6.06	20.8	15.7	38.9					
Nc1nccc(-c2c(-c3ccc(F)cc3)ncn2CCCN2CCOCC2)n1	> 25	> 25	> 25	> 25	> 25	> 25	> 25	> 25					
COc1cc([N+](=O)[O-])ccc1NC(=O)C(F)(F)F		> 100		> 100		> 100		> 100					
O=C(NC1CCCCCC1)C1C(=O)N(C2CCCCCC2)C(=O)/C1=N\O (centres undefined)									> 100	> 100	75.6	> 100	84.5
COc1cc2c(/C=C3/C(=O)Nc4cccc(Cl)c43)c(Cl)n(Cc3ccccc3)c2cc1C	11.2	> 100	1.11	5.82	4.29	> 38	14	> 100					
COc1ccc(/C(=N/Nc2ccc([N+](=O)[O-])cc2)Sc2cc(Cl)c(C)cc2S(N)(=O)=O)cc1	3.8	9.77	4.67	13.3	5.2	17.6	7.16	19.2					
CCOC(=O)c1c(C)n(Cc2ccc(OC)cc2)c2c1cc(O)c1[nH]c3c(c12)CCCC3	27.5	> 100	15.9	82	2.86	37.4	2.02	38.8					
COc1ccc(-n2cc(-c3cc(OC)c(OC)c(OC)c3)[nH]c2=S)cc1OC	> 100	> 100	> 100	> 100	> 100	> 100	> 100	> 100					
NCCCCn1c2c(c3ccccc3c1=O)C(=O)c1ccccc1-2	0.0131	0.498	0.717	2.28	0.193	2.16	0.631	6.81					
Cc1ccc(C(=O)/C=C/c2ccccc2O)c(C)c1									> 100	> 100	3.07	> 100	> 100
CNC1C(=O)C(C)C(O)(C(CC(C)C(O)/C=C/C=C/CNC(=O)C(C)(C)C(O)\C(C)=C/C=C\C=C\Cc2cnc(C)o2)OC)C12C(=O)OC2COC (centres undefined) (tested in a mixture with another compound)		> 100		> 100		63.5		> 93.3					
COc1ccc(C(=O)/C=C/c2cccnc2Nc2cc(OC)c(OC)c(OC)c2)cc1	4.89	17.1	0.885	12.2	1.53	10.1	1.94	15.6					
CC[C@H](C)[C@H](NC(=O)[C@H]1CCCCN1C)C(=O)N(C)[C@H](CCc1nc(C(=O)N[C@@H](Cc2ccccc2)C[C@H](C)C(=O)OC)cs1)C(C)C	0.351	> 25	0.0363	0.185	0.375	> 25							
COc1ccc(-c2nc(-c3nc4ccc(C)cc4[nH]3)c3ccccn23)cc1	2.85	> 100	2.3	8.46	1.88	7.68	2.27	8.06					
CC(=O)c1ccc(NC(=O)/C(Cc2ccccn2)=N/NC(=O)C[N+](C)(C)C)cc1									> 100	> 100	> 100	> 100	> 100
COc1cc2c3c(n(CCCBr)c(=O)c2cc1OC)-c1ccc(NC(C)=O)cc1C3=O	4.65	> 100	13.9	78.3	24.8	> 100	1.84	> 100					
COc1cc(C(=O)O[C@H](C(N)=O)[C@]2(C)CO2)c2ccccc2c1			23.7	53.2	25	> 100	10.7	27.3					
CC#CC(=O)Nc1ccccc1CC(c1c[nH]c2ccccc12)c1c[nH]c2ccccc12									36.3	38	31.2	46.1	29.9
